Measurements from patent US20250243176A1, “(S)-1-(1-ACRYLOYLPIPERIDIN-3-YL)-2-FLUORO-5,6,7,8,9,10-HEXAHYDROCYCLO HEPTA[B]INDOLE-4-CARBOXAMIDE, AND RELATED CRYSTALLINE FORMS, COMPOSITIONS, AND METHODS THEREOF” (GB005, Inc., priority 2021, published 2025).
≈ marks a conversion by molar mass, not a printed value.

What was measured:
[1] = Solubility testing in vehicle, HPLC (Form III); type: physicochemical; conditions: thermodynamic from solid
Description: In each of the following studies (Examples 6-10), the starting material was Compound 1 (free form, not salt) Form III. The material was a light yellow solid, comprising non-hygroscopic irregular shaped crystal with aggregation. The same analytical methods as described in Example 1 were employed.
Vehicle solutions were prepared as follows:
Solubility was determined at room temperature for 24 and 72 hours and at 45° C. for 4 and 24 hours. About 30/100 mg Compound 1 was added to vehicle (2 mL) and the mixture stirred at room temperature for 24 or 72 hours. The suspensions were filtered or centrifuged, and the filtrate analyzed by HPLC.

[2] = target: T1, Bruton's tyrosine kinase (BTK) (Homo sapiens, UniProt Q06187); assay: BTK cell-free enzymatic assay; type: biochemical
T1 construct: from tissue; host or cells: whole blood
T1 sequence (Q06187 whole entry, species assumed): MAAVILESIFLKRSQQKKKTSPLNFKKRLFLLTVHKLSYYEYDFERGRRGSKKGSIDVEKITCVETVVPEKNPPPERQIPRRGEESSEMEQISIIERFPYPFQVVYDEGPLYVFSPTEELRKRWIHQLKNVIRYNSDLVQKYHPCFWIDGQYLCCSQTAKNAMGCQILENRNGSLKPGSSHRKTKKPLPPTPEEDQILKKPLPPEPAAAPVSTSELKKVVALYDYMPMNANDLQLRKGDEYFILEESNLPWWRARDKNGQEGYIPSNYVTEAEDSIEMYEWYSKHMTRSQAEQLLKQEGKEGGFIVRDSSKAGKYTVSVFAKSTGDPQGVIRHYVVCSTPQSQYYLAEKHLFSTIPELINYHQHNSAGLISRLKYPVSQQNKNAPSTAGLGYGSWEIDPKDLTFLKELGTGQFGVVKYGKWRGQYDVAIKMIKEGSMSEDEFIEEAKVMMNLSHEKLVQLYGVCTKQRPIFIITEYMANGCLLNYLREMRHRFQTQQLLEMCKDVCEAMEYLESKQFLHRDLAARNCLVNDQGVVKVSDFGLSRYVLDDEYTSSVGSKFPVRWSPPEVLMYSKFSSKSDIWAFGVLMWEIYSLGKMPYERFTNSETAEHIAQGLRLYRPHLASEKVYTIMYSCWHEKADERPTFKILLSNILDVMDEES
From the text: (§1) (S)-1-(1-acryloylpiperidin-3-yl)-2-fluoro-5,6,7,8,9,10-hexahydrocyclohepta[b]indole-4-carboxamide, hereinafter referred to as “Compound 1”, is an orally available, selective, potent inhibitor of Bruton's tyrosine kinase (BTK), thereby providing potential treatment options in BTK-driven diseases. The potency of Compound 1 for BTK inhibition is in the nM range in both cell-free enzymatic and whole blood functional assays.

[3] = CNS penetration (background statement)
From the text: as §1

[4] = aqueous with cosolvent or surfactant or cyclodextrin, 1% Tween 80, RT, pH 6.3, loading 15 mg/mL
[5] = aqueous with cosolvent or surfactant or cyclodextrin, 1% polox188, RT, pH 5.7, loading 15 mg/mL
[6] = aqueous with cosolvent or surfactant or cyclodextrin, 5% PVP K30, RT, pH 4.0, loading 15 mg/mL
[7] = aqueous with cosolvent or surfactant or cyclodextrin, 5% PVP VA64, RT, pH 4.6, loading 15 mg/mL
[8] = aqueous with cosolvent or surfactant or cyclodextrin, 10% HP-B-CD, RT, pH 6.7, loading 15 mg/mL
[9] = aqueous with cosolvent or surfactant or cyclodextrin, 10% SBE-B-CD, RT, pH 6.5, loading 15 mg/mL
[10] = aqueous with cosolvent or surfactant or cyclodextrin, 10% TPGS, RT, pH 5.3, loading 15 mg/mL
[11] = aqueous with cosolvent or surfactant or cyclodextrin, Gelucire 48/16, 45° C., loading 50 mg/mL
[12] = oil or lipid, Miglyol 810, RT, pH 5.8, loading 15 mg/mL
[13] = oil or lipid, Phosal 50PG, RT, pH 5.8, loading 50 mg/mL
[14] = oil or lipid, Sesame oil, RT, pH 6.5, loading 15 mg/mL

## C=CC(=O)N1CCC[C@@H](c2c(F)cc(C(N)=O)c3[nH]c4c(c23)CCCCC4)C1 [Compound 1, (S)-1-(1-acryloylpiperidin-3-yl)-2-fluoro-5,6,7,8,9,10-hexahydrocyclohepta[b]indole-4-carboxamide]
[1]; aqueous with cosolvent or surfactant or cyclodextrin, 1% SLS, RT, pH 7.1, loading 15 mg/mL
  solubility at 24 h: 1200 µg/mL (≈ 3.13 mM)
[1]; aqueous with cosolvent or surfactant or cyclodextrin, 1% SLS, RT, pH 7.2, loading 15 mg/mL
  solubility at 72 h: 1150 µg/mL (≈ 3 mM)
[1]; [4]
  solubility at 24 h: 160 µg/mL (≈ 0.417 mM)
  solubility at 72 h: 170 µg/mL (≈ 0.443 mM)
[1]; [5]
  solubility at 24 h: 0.2 µg/mL (≈ 0.000522 mM)
  solubility at 72 h: 0.4 µg/mL (≈ 0.00104 mM)
[1]; aqueous with cosolvent or surfactant or cyclodextrin, 1% polox407, RT, pH 6.7, loading 15 mg/mL
  solubility at 24 h: 4 µg/mL (≈ 0.0104 mM)
[1]; aqueous with cosolvent or surfactant or cyclodextrin, 1% polox407, RT, pH 6.9, loading 15 mg/mL
  solubility at 72 h: 1 µg/mL (≈ 0.00261 mM)
[1]; [6]
  solubility at 24 h: 8 µg/mL (≈ 0.0209 mM)
  solubility at 72 h: 60 µg/mL (≈ 0.156 mM)
[1]; [7]
  solubility at 24 h: 36 µg/mL (≈ 0.0939 mM)
  solubility at 72 h: 42 µg/mL (≈ 0.11 mM)
[1]; [8]
  solubility at 24 h: 230 µg/mL (≈ 0.6 mM)
  solubility at 72 h: 220 µg/mL (≈ 0.574 mM)
[1]; [9]
  solubility at 24 h: 1600 µg/mL (≈ 4.17 mM)
  solubility at 72 h: 1610 µg/mL (≈ 4.2 mM)
[1]; [10]
  solubility at 24 h: 2030 µg/mL (≈ 5.29 mM)
  solubility at 72 h: 2040 µg/mL (≈ 5.32 mM)
[1]; aqueous with cosolvent or surfactant or cyclodextrin, Cremophor RH40, 45° C., loading 50 mg/mL
  solubility at 4 h: 18.6 mg/mL (≈ 48.5 mM)
[1]; aqueous with cosolvent or surfactant or cyclodextrin, Gelucire 44/14, 45° C., pH 5.7, loading 50 mg/mL
  solubility at 4 h: 48.1 mg/mL (≈ 125 mM)
[1]; aqueous with cosolvent or surfactant or cyclodextrin, Gelucire 44/14, 45° C., pH 5.8, loading 50 mg/mL
  solubility at 24 h: > 50000 µg/mL
[1]; [11]
  solubility at 4 h: 44.3 mg/mL (≈ 116 mM)
  solubility at 24 h: > 50000 µg/mL
[1]; aqueous with cosolvent or surfactant or cyclodextrin, Labrasol, RT, pH 6.9, loading 50 mg/mL
  solubility at 24 h: > 50000 µg/mL
[1]; aqueous with cosolvent or surfactant or cyclodextrin, Labrasol, RT, pH 6.4, loading 50 mg/mL
  solubility at 72 h: > 50000 µg/mL
[1]; oil or lipid, Capryol 90, RT, pH 6.8, loading 50 mg/mL
  solubility at 24 h: 47900 µg/mL (≈ 125 mM)
[1]; oil or lipid, Capryol 90, RT, pH 6.5, loading 50 mg/mL
  solubility at 72 h: > 50000 µg/mL
[1]; [12]
  solubility at 24 h: 2160 µg/mL (≈ 5.63 mM)
  solubility at 72 h: 2670 µg/mL (≈ 6.96 mM)
[1]; oil or lipid, Oleic acid, 45° C., pH 3.0, loading 15 mg/mL
  solubility at 4 h: 8.5 mg/mL (≈ 22.2 mM)
[1]; oil or lipid, Oleic acid, 45° C., pH 3.3, loading 15 mg/mL
  solubility at 24 h: 14000 µg/mL (≈ 36.5 mM)
[1]; oil or lipid, Olive oil, RT, pH 5.2, loading 15 mg/mL
  solubility at 24 h: 440 µg/mL (≈ 1.15 mM)
[1]; oil or lipid, Olive oil, RT, pH 5.8, loading 15 mg/mL
  solubility at 72 h: 910 µg/mL (≈ 2.37 mM)
[1]; [13]
  solubility at 24 h: 15600 µg/mL (≈ 40.8 mM)
  solubility at 72 h: 23800 µg/mL (≈ 62 mM)
[1]; [14]
  solubility at 24 h: 730 µg/mL (≈ 1.9 mM)
  solubility at 72 h: 760 µg/mL (≈ 1.98 mM)
[1]; oil or lipid, phsal 53 MCT, 45° C., pH 5.3, loading 15 mg/mL
  solubility at 4 h: 6.4 mg/mL (≈ 16.7 mM)
[1]; oil or lipid, phsal 53 MCT, 45° C., pH 5.1, loading 15 mg/mL
  solubility at 24 h: > 15000 µg/mL
[1]; organic solvent or mixture, Cremophor EL, RT, pH 8.5, loading 50 mg/mL
  solubility at 24 h: 19500 µg/mL (≈ 50.9 mM)
[1]; organic solvent or mixture, Cremophor EL, RT, pH 8.3, loading 50 mg/mL
  solubility at 72 h: 33000 µg/mL (≈ 86.1 mM)
[1]; organic solvent or mixture, Cremophor HS 15, 45° C., pH 7.6, loading 50 mg/mL
  solubility at 4 h: > 50 mg/mL
[1]; organic solvent or mixture, Cremophor HS 15, 45° C., pH 7.5, loading 50 mg/mL
  solubility at 24 h: > 50000 µg/mL
[1]; organic solvent or mixture, Cremophor RH40, 45° C., loading 50 mg/mL
  solubility at 24 h: 33000 µg/mL (≈ 86.1 mM)
[1]; organic solvent or mixture, EtOH, RT, pH 5.9, loading 50 mg/mL
  solubility at 24 h: 19400 µg/mL (≈ 50.6 mM)
[1]; organic solvent or mixture, EtOH, RT, pH 6.2, loading 50 mg/mL
  solubility at 72 h: 27600 µg/mL (≈ 72 mM)
[1]; organic solvent or mixture, PEG400/TPGS(3/1), 45° C., pH 6.6, loading 50 mg/mL
  solubility at 4 h: > 50 mg/mL
[1]; organic solvent or mixture, PEG400/TPGS(3/1), 45° C., pH 6.1, loading 50 mg/mL
  solubility at 24 h: > 50000 µg/mL
[1]; organic solvent or mixture, PEG400, RT, pH 5.6, loading 50 mg/mL
  solubility at 24 h: > 50000 µg/mL
[1]; organic solvent or mixture, PEG400, RT, pH 6.7, loading 50 mg/mL
  solubility at 72 h: > 50000 µg/mL
[1]; organic solvent or mixture, PG, RT, pH 5.1, loading 50 mg/mL
  solubility at 24 h: 48200 µg/mL (≈ 126 mM)
[1]; organic solvent or mixture, PG, RT, pH 5.2, loading 50 mg/mL
  solubility at 72 h: > 50000 µg/mL
[2]
  potency for BTK inhibition: nM range
[3]
  CNS penetration: penetrant
